Consider eight molecules from PMC8708875 (Pharmaceutics, 2021).

Data set [1] is described as follows: crude tissue extract (kidney, 3 µg). The settings on record: WT mice, up to 20 min.
The nature of data set [2]: crude tissue extract (liver, 30 µg). The settings on record: WT mice, up to 20 min.
Data set [3] has as its system THOP1. Kind of data set: THOP1 (0.1 ng), homogeneous recombinant enzyme.
The subject of another data set is neurolysin (Nln). Kind of data set: Nln (0.1 ng), homogeneous recombinant enzyme.
Data set [4] in a line: in vitro. Format: in vitro ADME. Conditions: other tissue homogenate, mouse kidney crude extract 3 µg, peptide 50 µM, 250 µL TBS (0.025 M Tris-HCl, 0.125 M NaCl), RP-HPLC C18, UV 214 nm, average of three independent determinations, read-out: % of peptide degraded, Kidney Extract (3 µg). The method, then: (§1) Peptide hydrolyses were analyzed by reverse phase liquid chromatography (HPLC) using a C18 µBond-pak column (4.6 × 250 mm; Millipore Corp.) with a linear gradient of 5–65% acetonitrile in 0.1% TFA for 20 min at a flow rate of 1 mL/min, and absorbance monitored at a wavelength of 214 nm, as previously described. Cleaved peptide bonds were identified by mass spectrometry sequencing after isolating the cleavage fragments manually after HPLC, as previously described (data not shown). Control enzyme assays were conducted using bradykinin ([…]; 50 µM) as a standard substrate.
(IGF1) Rev: AGAGGTGTGAAGAC-
(GLUT4) Rev: CAGCTCCTATGGTGGCG-
Glyceraldehyde 3-phosphate de- TGCCAGCCTCGTCC 75 BC_085275 hydrogenase (GAPDH) Rev: CAGGCGCCCAATAC-
Figure S1. Typical experiments to evaluate the enzymatic stability of Ric4 and derivatives on kidney tissue extracts. In order to determine if the peptides investigated herein were substrates of tissue peptidases, 50 μM of each peptide was individually incubated for 20 min in the presence of increas-ing crude kidney tissue extracts (0 µg, 3 µg or 30 µg, as indicated), in a final volume of 250 μl of 0,025 M Tris-HCl, containing 0.125 M NaCl (TBS). Peptide hydrolyses were analyzed by reverse phase liquid chromatography (HPLC) using a C18 µBond-pak column (4.6 x 250 mm; Millipore Corp.) with a linear gradient of 5-65% acetonitrile in 0.1 % TFA for 20 min at a flow rate of 1 mL/min, (1 picture or pasted object on this page, not shown here)

Data set [5] in a line: in vitro. It counts as in vitro ADME, mouse. Conditions: other tissue homogenate; mouse liver crude extract 30 µg; peptide 50 µM; 20 min; 250 µL TBS (0.025 M Tris-HCl, 0.125 M NaCl); RP-HPLC C18, UV 214 nm; average of three independent determinations; read-out: % of peptide degraded, Liver Extract (30 µg). As for the experimental part: as §1
In the next data set the test system is C57BL/6N (WT) mice. It counts as in vivo, mouse. As for the experimental part: In vivo experiments were conducted with male C57BL/6N (WT) mice 12–16 weeks-old (University of São Paulo Medical School Animal Facility, SP, Brazil). Mice were maintained in individual ventilated cages (Amresco, SP, Brazil), under standardized conditions with an artificial 12 h dark–light cycle, with free access to standard chow (Nuvital Nutrientes S.A., Colombo, PR, Brazil) and drinking water ad libitum. The number of animals used was the minimum necessary to obtain statistically significant results and they were maintained and used in accordance with the guidelines of the National Council for Control of Animal Experiments (CONCEA), following international norms of animal care and maintenance. Thus, we hereby state that all experimental protocols were previously approved by University of São Paulo Ethic committee councils from Biomedical Science Institute (approval number for mice experimentation ICB/USP 22/2017).
WT mice were fasted for 12 h and blood samples were taken before and at 15, 30, 60, 90, and 120 min after the intraperitoneal (ip) injection of 2 g/kg glucose. Glycemia was measured using a glucometer (Accu-Check Performa, ROCHE, São Paulo, Brazil). Peptides were evaluated to affect glucose uptake either after ip or oral (by gavage) administration. After 20 min glucose was administrated (blood glucose levels reached 400 mg/dL), animals received ip or oral administration of either saline, insulin (0.75 IU/kg), or peptide (Ric2 or Ric4; 600 µg/kg). In addition, a group of animals received oral administration of either water or Ric2 or Ric4 (600 µg/kg). Glycemia was measured as indicated following vehicle, insulin, or peptide administration.

The next data set has as its system Nln. It counts as in vitro ADME. The method, then:
as §1

Data set [6] has as its target THOP1 (Rattus norvegicus, UniProt P24155). Format: in vitro ADME. The method, then: as §1
In data set [7] the test system is differentiated C2C12 cells. Kind of data set: Glucose uptake in C2C12 myotubes. It counts as cell-based, mouse. Conditions: peptides 100 µM, insulin 100 nM; 30 min, 37 °C; 3H-glucose (1 µCi/mL) or 2-NBDG (80 µM).

Where two headings read alike, the source gives them in different places. Square brackets hold non-standard residues; d marks the D form. Ends that are not written are not given here. Peptide text beside a SMILES is read from it.

Chain of THOP1 (Rattus norvegicus, UniProt P24155) (P24155 whole entry): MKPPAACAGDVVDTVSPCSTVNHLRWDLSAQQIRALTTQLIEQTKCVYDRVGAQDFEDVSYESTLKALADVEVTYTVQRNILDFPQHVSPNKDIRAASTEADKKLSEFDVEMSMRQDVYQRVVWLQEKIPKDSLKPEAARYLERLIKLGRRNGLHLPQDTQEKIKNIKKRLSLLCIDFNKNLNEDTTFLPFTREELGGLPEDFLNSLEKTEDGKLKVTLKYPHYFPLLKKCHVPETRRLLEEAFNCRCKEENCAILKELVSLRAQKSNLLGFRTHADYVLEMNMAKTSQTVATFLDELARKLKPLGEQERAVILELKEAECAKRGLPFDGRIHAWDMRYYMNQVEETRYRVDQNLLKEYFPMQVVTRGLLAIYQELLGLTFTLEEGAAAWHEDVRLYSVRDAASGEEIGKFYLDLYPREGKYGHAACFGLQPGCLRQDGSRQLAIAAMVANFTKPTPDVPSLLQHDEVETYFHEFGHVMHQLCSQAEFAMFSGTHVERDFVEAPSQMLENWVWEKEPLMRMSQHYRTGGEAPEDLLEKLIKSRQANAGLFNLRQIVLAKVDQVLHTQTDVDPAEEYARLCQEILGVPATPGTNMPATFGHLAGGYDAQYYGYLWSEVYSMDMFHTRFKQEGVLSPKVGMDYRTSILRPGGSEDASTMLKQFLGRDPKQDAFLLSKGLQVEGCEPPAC

Regarding LASVSTVLTSKYR, the cleaved bond entry is “Leu8-Thr9, first_seen” in data set [1] and “Leu8-Thr9, first_seen” in [2]. Moreover, the values for the not cleaved in the data set on THOP1 [3] and in the data set on neurolysin (Nln) were 2.22 % of peptide degraded and 4.69 % of peptide degraded, respectively.
`CC(=O)N[C@@H](CC(C)C)C(=O)N[C@@H](C)C(=O)N[C@@H](CO)C(=O)N[C@H](C(=O)N[C@@H](CO)C(=O)N[C@H](C(=O)N[C@H](C(=O)N[C@H](CC(C)C)C(=O)N[C@H](C(=O)N[C@@H](CO)C(=O)N[C@@H](CCCCN)C(=O)N[C@@H](Cc1ccc(O)cc1)C(=O)N[C@@H](CCCNC(=N)N)C(N)=O)[C@@H](C)O)C(C)C)[C@@H](C)O)C(C)C` [RIC4-16] (Ac-LASVSTV[dL]TSKYR-NH2): the metabolised at 20 min in the data set “in vitro [4]” was 12.5%; in “in vitro [5]”, 26%.
For LASVSTVLTSKYR [RIC4], the metabolised at 20 min in “in vitro [4]” stood at 22.6%; in “in vitro [5]” it was 62.4%.
Turning to “Ac-LASVSTVLTSKYR-NH2 [Ric4-2, Ric4 derived peptide]”, the “blood glucose levels in GTT, oral administration” value in the data set on C57BL/6N (WT) mice (WT mice fasted 12 h, glucose 2 g/kg ip at time zero, peptide 600 µg/kg orally by gavage) is recorded as “ability to reduce blood glucose levels”.
As to Ac-LASVSTVLTSKYR-NH2 [RIC4-2], the results for the metabolised at 20 min in “in vitro [4]” and in “in vitro [5]” were 60% and 70.2%, respectively.
Turning to RPPGFSPFR [Bradykinin], the “% of peptide degraded, Nln” value in the data set on Nln worked out at 14.51%. Moreover, the “% of peptide degraded, THOP1” value on THOP1 [6] was 11.93%.
“Ac-LASVSTV[dL]TSKYR-NH2 [Ric4-16, Ric4 derived peptide]”: the oral bioavailability entry in the data set on C57BL/6N (WT) mice (mouse, in vivo, po) was “no oral bioavailability”. Further, the “glucose uptake in differentiated C2C12 cells” value in data set [7] was “efficiently induced glucose uptake”.
Take Ac-LASVSTVLTSKYR-NH2: the not cleaved with THOP1 [3] is 4.55 % of peptide degraded; in the data set with neurolysin (Nln), 1.18 % of peptide degraded.
